A word on the IC50: it is the concentration that inhibits the measured activity by half. A high value points to a need for much substance.

In this assay the target is T1, visual cycle isomerase (Bovine RPE microsome membranes) (Bos taurus, UniProt Q28175).
T1 construct: Bovine Retinal Pigment Epithelium (RPE) microsome membranes were the source of a visual cycle isomerase; from tissue; host or cells: bovine retinal pigment epithelium microsome membranes
T1 sequence (Q28175 2-533 limits assumed): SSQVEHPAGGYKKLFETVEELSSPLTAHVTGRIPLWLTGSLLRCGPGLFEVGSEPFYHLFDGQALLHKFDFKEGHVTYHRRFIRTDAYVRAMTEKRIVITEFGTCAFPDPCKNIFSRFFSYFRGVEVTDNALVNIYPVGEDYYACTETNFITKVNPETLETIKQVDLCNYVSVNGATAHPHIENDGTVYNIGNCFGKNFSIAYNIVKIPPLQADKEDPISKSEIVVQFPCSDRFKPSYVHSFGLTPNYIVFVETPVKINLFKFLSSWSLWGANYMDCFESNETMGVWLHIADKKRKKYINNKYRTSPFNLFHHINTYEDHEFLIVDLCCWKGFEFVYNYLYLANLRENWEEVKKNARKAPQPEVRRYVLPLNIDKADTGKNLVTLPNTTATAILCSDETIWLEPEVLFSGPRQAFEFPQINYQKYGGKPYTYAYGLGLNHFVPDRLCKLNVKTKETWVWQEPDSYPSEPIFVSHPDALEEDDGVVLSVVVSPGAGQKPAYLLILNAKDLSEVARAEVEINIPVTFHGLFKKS
Kind of assay: In vitro isomerase inhibition assay, bovine RPE microsome membranes. The assay is classed as biochemical. To be noted: bovine RPE microsomes; 11-cis retinol formation. The gist of the method:
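Bovine RPE microsomes incubated 30 min at 37 °C with 20 μM all-trans retinol and 6 μM recombinant human apo-CRALBP in 10 mM BTP pH 7.5, 0.5% BSA, 1 mM pyrophosphate, plus compound in ethanol. 11-cis retinol formation quantified by normal-phase HPLC (A318) after heptane extraction; duplicates.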

`NCCOc1cccc(C#CC2(O)CCSCC2)c1` [Example 55, 4-((3-(2-Aminoethoxy)Phenyl)Ethynyl)Tetrahydro-2H-Thiopyran-4-ol]: the IC50 is ≤ 1 µM. Turning to `NCCOc1cccc(C#CC2CCCC2)c1` [Example 79, 2-(3-(Cyclopentylethynyl)phenoxy)-ethanamine], the IC50 is ≤ 1 µM.

These data come from patent US8492589B2, “Alkynyl phenyl derivative compounds for treating ophthalmic diseases and disorders” (Acucela Inc., priority 2007, dated 2013).
